Measured values from patent US20060029690A1, “Buckwheat compound and method of obtaining the same for treatment of hyperglycemia” (priority 2004, published 2006).
Like-named read-outs stand apart in the source and are kept apart here.

What was measured:
alloxan diabetic mice [1] = test: Glucose tolerance test and AUC in alloxan diabetic mice (day 19 and day 22); format: in vivo; settings: for Blood glucose, glucose tolerance test, 0 min: metformin 200 mg/kg, others 5 g/kg
Description: (§1) The animals were made diabetic by a single intravenous injection of 70 mg/kg alloxan into the tail vein. After a period of 4 days, the treated mice were fasted for 2 hours, then the blood sample was taken from the treated mice intravenously. The blood glucose concentration was determined using Glucose Oxidase Peroxidase method. The mice with the blood glucose concentration above 200 mg/dl were marked diabetic mice and were used for further experiments.
(§2) The mice were divided into 5 groups, each group having 9 mice.
(§3) Group 5 received reagent (3) at the dose of 5 g/kg (p.o.).
(§4) At day 7 and 14, measurements of blood glucose concentration were taken after fasting for 2.5 and 5 hours. The change of glucose concentration by percentage was compared against the control group. Blood triglyceride and cholesterol concentrations were tested at day 14 (enzymatic method). Glucose tolerance test (2.0 g/kg, p.o.) was conducted at day 19. First, the mice were fasted for half an hour before the administration of control and test substances. Two and half hours later, the mice received glucose at the dose of 2 g/kg, po. Blood samples were taken at 0, 30, 60, 120 minutes after administration of the glucose. Blood glucose concentration (mg/dl) of the mice were determined and the related measurements of Area Under the Curve (AUC) were estimated. The serum superoxide dismutase (SOD) level of blood samples taken at 0 minute was tested. Glucose tolerance test was conducted again at day 22. The mice were fasted for 1 hour before administration. One and half hour after administration, the mice received glucose at the dose of 2 g/kg, po Blood samples were taken at 0, 30 60, 120 minutes.

STZ diabetic rats [2] = test: Non-fasting blood glucose, serum SOD activity and catalase (CAT) activity in STZ diabetic rats at day 19; format: in vivo, rat; settings: oral administration for 19 days
Description: (§5) The treatments were administered once every day.
At day 19, blood samples were taken, and blood glucose concentrations without fasting, the activities of SOD and catalase (CAT) levels were determined.

STZ diabetic rats [3] = test: Glucose tolerance test and AUC in STZ diabetic rats (day 14 and day 21)
Description: (§6) Male rats (Sprague-Dwaley, male), weighing 120 to 140 g, were purchased from VTLF Experiment Animal Technology Center Company Ltd., Beijing P. R. China The animals were made diabetic by a single intraperitoneal injection of streptozocin (freshly prepared in 0.1 M citrate buffer (pH 4.5) at the dose of 58 mg/kg). After a period of 4 days, the treated rats were fasted for 2.5 hours, then blood samples were taken from the treated rats intravenously. Blood glucose concentrations were determined using the Glucose Oxidase Peroxidase method. The rats with blood glucose concentrations above 190 mg/dl were marked as diabetic rats and used for further experiments.
(§7) The rats were divided into 6 groups of 10 rats per group. The difference in the average blood glucose concentrations among the 6 groups was less than 10 mg/dl. Group 1 served as the negative control and received water. […] The remaining four groups received reagents (1) to (4) as listed in Section 1.3.1 above. Reagents (1) and (2) were administered at a dose of 4 g/kg, while (3) and (4) were administered at a dose of 5 g/kg. The treatments were administered once every day.
At day 14, glucose tolerance tests were conducted. The rats were fasted for 1 hour before receiving the reagents at dosages of 2.0 g/kg (p.o.). Blood samples were taken at 0, 30, 60, and 120 min after receiving the reagents. Blood glucose concentrations (mg/dl) were determined and the related AUC were calculated.
At day 21, glucose tolerance tests were conducted. The rats were fasted for 1 hour, then received their respective reagents at the dose of 5 g/kg (p.o.). 2.5 hours after administration of reagent the rats received glucose at a dose of 2 g/kg (p.o.). Blood samples were taken at 0, 30, and 120 minutes after glucose administration. Blood glucose concentrations (mg/dl) were determined and the related AUC were calculated.

alloxan diabetic mice [4] = test: Blood lipid level (cholesterol, triglyceride) of alloxan diabetic mice at day 14; format: in vivo; settings: metformin 200 mg/kg, others 5000 mg/kg
Description: as §1, §2, §3
as §4, with “The serum superoxide dismutase (SOD) level of blood samples taken at 0 minute was tested. Glucose tolerance test was conducted again at day 22. The mice were fasted for 1 hour before administration. One and half hour after administration, the mice received glucose at the dose of 2 g/kg, po Blood samples were taken at 0, 30 60, 120 minutes.” left out

[5] = Body weight of STZ diabetic rats after 9, 14 and 21 days; settings: STZ diabetic rat; metformin 0.2 g/kg, flavonoids 4.0 g/kg, extracts 5.0 g/kg
Description: as §6, §7

STZ diabetic rats [6] = test: Oral glucose tolerance test in STZ diabetic rats after 12 days (Example 2); format: in vivo, rat; settings: 12 days oral, dosage 0.2 g/kg
Description: […] were divided according to the blood glucose concentration under fasting conditions.
The STZ diabetic rats were divided into 4 groups, each group having 10 rats.
At day 12, oral glucose tolerance tests (2.0 g/kg) were conducted. […] 1 hour later, the rats received glucose at the dose of 2 g/kg (p.o.). Blood samples were taken at 0, 30 and 120 min respectively.

STZ diabetic rats [7] = settings: 7 days oral, dosage 0.2 g/kg
Description: The mice were divided according to the blood glucose concentration under fasting conditions. The difference between the average blood glucose concentrations of the 4 groups of rats was less than 10 mg/dl.
At day 7, fasting blood glucose concentration was tested after 2.5 and 5 hours of fasting. The change of glucose concentration by percentage was compared against the control group.

alloxan diabetic mice [8] = test: Blood glucose level of alloxan diabetic mice at day 7 and 14; format: in vivo; settings: metformin 200 mg/kg
Description: as §1, §2, §3, §4

alloxan diabetic mice [9] = test: Serum SOD level of alloxan diabetic mice at day 19; format: in vivo; settings: metformin 200 mg/kg, others 5000 mg/kg
Description: as §1, §2, §3
as §4, with “The serum superoxide dismutase (SOD) level of blood samples taken at 0 minute was tested. Glucose tolerance test was conducted again at day 22. The mice were fasted for 1 hour before administration. One and half hour after administration, the mice received glucose at the dose of 2 g/kg, po Blood samples were taken at 0, 30 60, 120 minutes.” left out

STZ diabetic rats [10] = test: Fasting blood glucose concentration in STZ diabetic rats after 7 days (Example 1); format: in vivo, rat; settings: oral administration for 7 days, metformin 0.2 g/kg, extracts 5.0 g/kg
Description: as §5
At day 7, the rats in groups 1, 2 and 3 were fasted and blood samples were taken at 2.5 hours and 5 hours after fasting began. Blood glucose concentrations (mg/dl) in these samples were then determined.

[11] = day 19, glucose 2 g/kg p.o. 2.5 h after administration
[12] = day 22, glucose 2 g/kg p.o. 1.5 h after administration
[13] = oral administration for 14 days
[14] = oral administration for 21 days

Structure (SMILES): CN(C)C(=N)N=C(N)N [Metformin, metformin]
- Blood glucose, glucose tolerance test, 30 min (alloxan diabetic mice [1]; [11]): 544.4 ± 45.3 mg/dL
- Blood glucose, glucose tolerance test, 60 min (alloxan diabetic mice [1]; [11]): 512.0 ± 76.9 mg/dL
- Blood glucose, glucose tolerance test, 120 min (alloxan diabetic mice [1]; [11]): 408.4 ± 71.3 mg/dL
- Blood glucose, glucose tolerance test, 0 min (alloxan diabetic mice [1]; [11]): 346.8 ± 68.3 mg/dL
- Blood glucose, glucose tolerance test, 30 min (alloxan diabetic mice [1]; [12]): 474.5 ± 74.4 mg/dL
- Blood glucose, glucose tolerance test, 60 min (alloxan diabetic mice [1]; [12]): 450.7 ± 80.1 mg/dL
- Blood glucose, glucose tolerance test, 120 min (alloxan diabetic mice [1]; [12]): 358.6 ± 88.3 mg/dL
- Blood glucose, glucose tolerance test, 0 min (alloxan diabetic mice [1]; [12]): 377.6 ± 87.6 mg/dL
- CAT activity (STZ diabetic rats [2]): 64.6 ± 12.5 U/gHb
- Serum SOD activity (STZ diabetic rats [2]): 164.8 ± 16.9 NU/ml
- Non-fasting blood glucose concentration (STZ diabetic rats [2]; metformin 0.2 g/kg, flavonoids 4.0 g/kg, extracts 5.0 g/kg): 340.5 ± 40.7 mg/dL
- AUC of blood glucose (STZ diabetic rats [3]; [13]): 652.5 ± 133.8 mg·h/dL
- blood glucose concentration, glucose tolerance test, 30 min (STZ diabetic rats [3]; [13]): 356.2 ± 93.3 mg/dL
- blood glucose concentration, glucose tolerance test, 60 min (STZ diabetic rats [3]; [13]): 320.9 ± 64.6 mg/dL
- blood glucose concentration, glucose tolerance test, 120 min (STZ diabetic rats [3]; [13]): 296.6 ± 72.6 mg/dL
- blood glucose concentration, glucose tolerance test, 0 min (STZ diabetic rats [3]; oral administration for 14 days, metformin 0.2 g/kg, flavonoids 4.0 g/kg, extracts 5.0 g/kg): 341.8 ± 44.8 mg/dL
- AUC of blood glucose (STZ diabetic rats [3]; [14]): 645.4 ± 122.0 mg·h/dL
- blood glucose concentration, oral glucose tolerance, 30 min (STZ diabetic rats [3]; [14]): 358.0 ± 77.3 mg/dL
- blood glucose concentration, oral glucose tolerance, 120 min (STZ diabetic rats [3]; [14]): 279.8 ± 51.6 mg/dL
- Blood cholesterol (alloxan diabetic mice [4]): 159.8 ± 48.7 mg/dL
- Blood triglyceride (alloxan diabetic mice [4]): 132.8 ± 34.2 mg/dL
- weight at day 9 [5]: 203.3 ± 22.3 g
- weight at day 14 [5]: 200.4 ± 29.4 g
- AUC (STZ diabetic rats [6]): 800.9 ± 103.2 mg·h/dL
- Fasting blood glucose concentration, oral glucose tolerance, 0 min (STZ diabetic rats [6]): 398.4 ± 36.6 mg/dL
- Fasting blood glucose concentration, oral glucose tolerance, 30 min (STZ diabetic rats [6]): 458.4 ± 59.7 mg/dL
- Fasting blood glucose concentration, oral glucose tolerance, 120 min (STZ diabetic rats [6]): 323.9 ± 51.2 mg/dL
- reduction of AUC by percentage (STZ diabetic rats [6]; versus control): (14.2) %
- fasting blood glucose concentration, 2.5 hr. (STZ diabetic rats [7]): 357.2 ± 51.5 mg/dL
- fasting blood glucose concentration, 5 hr. (STZ diabetic rats [7]): 288.9 ± 68.8 mg/dL
- reduction of blood glucose concentration by percentage, 2.5 hr. (STZ diabetic rats [7]; versus control): (11.7) %
- reduction of blood glucose concentration by percentage, 5 hr. (STZ diabetic rats [7]; versus control): (22.5) %
- effective in lowering blood glucose concentration in alloxan diabetic mice (in words) (alloxan diabetic mice [8]; continuously for 7 and 14 days, extracts 5 g/kg): significant glucose-lowering effect
- Blood glucose concentration at day 7, 2.5 hr after administering (alloxan diabetic mice [8]; day 7, 2.5 hr, p.o. once daily, extracts and flavonoid B 5000 mg/kg): 216.8 ± 78.2 mg/dL
- Blood glucose concentration at day 7, 5 hr after administering (alloxan diabetic mice [8]; day 7, 5 hr, p.o. once daily, others 5000 mg/kg): 182.8 ± 88.1 mg/dL
- Blood glucose concentration at day 14, 2.5 hr after administering (alloxan diabetic mice [8]; day 14, 2.5 hr, p.o. once daily, others 5000 mg/kg): 281.5 ± 60.9 mg/dL
- Blood glucose concentration at day 14, 5 hr after administering (alloxan diabetic mice [8]; day 14, 5 hr, p.o. once daily, others 5000 mg/kg): 221.7 ± 65.9 mg/dL
- blood glucose change by percentage, day 7, 2.5 hr (alloxan diabetic mice [8]; versus control group, day 7, 2.5 hr, others 5000 mg/kg): 34%
- blood glucose change by percentage, day 7, 5 hr (alloxan diabetic mice [8]; versus control group, day 7, 5 hr, others 5000 mg/kg): 32.4%
- blood glucose change by percentage, day 14, 2.5 hr (alloxan diabetic mice [8]; versus control group, day 14, 2.5 hr, others 5000 mg/kg): 21.2%
- blood glucose change by percentage, day 14, 5 hr (alloxan diabetic mice [8]; versus control group, day 14, 5 hr, others 5000 mg/kg): 21.3%
- Serum SOD (alloxan diabetic mice [9]): 78.3 ± 26.5 u/mg
- Fasting blood glucose concentration, 5.0 hr. (STZ diabetic rats [10]; flavonoids 4.0 g/kg): 185.6 ± 78.8 mg/dL
- fasting blood glucose concentration, 2.5 hr. (STZ diabetic rats [10]; flavonoids A and B 4.0 g/kg): 261.1 ± 45.7 mg/dL
